Experimental data as given in ChEMBL document CHEMBL3352473, “Synthesis and evaluation of imidazole-4,5- and pyrazine-2,3-dicarboxamides targeting dengue and yellow fever virus” (Eur J Med Chem, 2014).

Assays:
[1] = Selectivity index, ratio of CC50 for green monkey Vero-B cells to EC50 for Dengue virus infected in green monkey Vero-B cells; type: toxicity, cell-based; settings: read-out: Ratio CC50/EC50
[2] = Selectivity index, ratio of CC50 for green monkey Vero-B cells to EC50 for Yellow fever virus infected in green monkey Vero-B cells; type: toxicity, cell-based; settings: read-out: Ratio CC50/EC50

Row | Compound | selectivity ratio [1] | selectivity ratio [2]
1 | Cc1ccc(NC(=O)c2nc[nH]c2C(=O)Nc2ccccc2)c(-c2ccsc2)c1 | 1 | 13
2 | Cc1ccc(NC(=O)c2nc[nH]c2C(=O)Nc2ccc(F)cc2)c(-c2cc(C)n[nH]2)c1 | 48 | 34.5
3 | Cc1cc(-c2ccccc2NC(=O)c2nc[nH]c2C(=O)Nc2ccc(F)cc2)[nH]n1 | 3.6 | 67
4 | O=C(NCc1ccccc1-c1ccncc1)c1nc[nH]c1C(=O)Nc1ccc(F)cc1 | 26 | 31
5 | O=C(NCc1ccccc1-c1ccsc1)c1nc[nH]c1C(=O)Nc1ccc(F)cc1 | 1.95 | 13.2
6 | O=C(NCc1ccc(-c2cccnc2)cc1)c1nc[nH]c1C(=O)Nc1ccc(F)cc1 | 2.85 | 10
7 | O=C(NCc1ccc(-c2ccsc2)cc1)c1nc[nH]c1C(=O)Nc1ccc(F)cc1 | 0.6 | 4.13
8 | O=C(NCc1ccc(-c2ccncc2)cc1)c1nc[nH]c1C(=O)Nc1ccc(F)cc1 | 1 | 1
9 | Cc1ccc(NC(=O)c2nc[nH]c2C(=O)Nc2ccc(F)cc2)c(-c2ccsc2)c1 | 2.4 | 1
10 | Cc1ccc(NC(=O)c2nc[nH]c2C(=O)Nc2ccc(F)cc2)c(-c2ccco2)c1 | 1 | 
11 | Cc1ccc(NC(=O)c2[nH]cnc2C(=O)Nc2ccc(C)cc2-c2ccsc2)cc1 | 24.5 | 1
12 | Cc1ccc(NC(=O)c2[nH]cnc2C(=O)Nc2ccc(C)cc2-c2ccco2)cc1 | 36.2 | 
13 | Cc1ccc(NC(=O)c2nc[nH]c2C(=O)NCc2ccccc2)c(-c2ccco2)c1 | 1 | 
14 | Cc1ccc(NC(=O)c2nc[nH]c2C(=O)NCCc2ccc(F)cc2)c(-c2ccco2)c1 | 30.9 | 
15 | Cc1cnc(NC(=O)c2[nH]cnc2C(=O)Nc2ccccc2)c(-c2ccc(C)s2)c1 | 0.22 | 0.97
16 | O=C(NCc1ccc(-c2ccncc2)cc1)c1nccnc1C(=O)Nc1ccc(F)cc1 | > 125 | 16
17 | Cc1ccc(NC(=O)c2nccnc2C(=O)Nc2ccc(F)cc2)c(-c2cccnc2)c1 | > 125 | 9
18 | O=C(NCc1ccc(-c2cccnc2)cc1)c1nccnc1C(=O)Nc1ccc(F)cc1 | 38.5 | 13
19 | O=C(Nc1ccc(F)cc1)c1nccnc1C(=O)Nc1ccccc1-c1ccncc1 | 10.4 | 15
20 | O=C(Nc1ccc(F)cc1)c1nccnc1C(=O)Nc1ccccc1-c1cccnc1 | 5.2 | 2.5
21 | O=C(NCc1ccccc1-c1ccncc1)c1nccnc1C(=O)Nc1ccc(F)cc1 | 2.9 | 
22 | Cc1ccc(NC(=O)c2nccnc2C(=O)Nc2ccc(F)cc2)c(-c2ccncc2)c1 | 1 | 2.6
23 | Cc1ccc(NC(=O)c2nccnc2C(=O)NCc2ccc(-c3ccncc3)cc2)cc1 | 4.5 | 3
24 | Cc1ccc(NC(=O)c2nccnc2C(=O)Nc2ccc(C)cc2-c2cccnc2)cc1 | 4.5 | 4.1
25 | Cc1ccc(NC(=O)c2nccnc2C(=O)NCc2ccc(-c3cccnc3)cc2)cc1 | 17.2 | 1.7
26 | Cc1ccc(NC(=O)c2nccnc2C(=O)Nc2ccccc2-c2ccncc2)cc1 | 26 | 10
27 | Cc1ccc(NC(=O)c2nccnc2C(=O)Nc2ccccc2-c2cccnc2)cc1 | 8.8 | 1
28 | Cc1ccc(NC(=O)c2nccnc2C(=O)NCc2ccccc2-c2ccncc2)cc1 | 2.04 | 1.7
29 | Cc1ccc(NC(=O)c2nccnc2C(=O)Nc2ccc(C)cc2-c2ccncc2)cc1 | 10 | 3.8
